Data set [1] in a line: 14C-lapatinib distribution after intravenous dosing. The following applies: 10 mg/kg i.v., 30 min. It is filed as in vivo, mice.
Data set [2] can be described thus: 14C-lapatinib radiochemical integrity in plasma and tissues by HPLC. The format is in vivo, mice.
In data set [3] the test system is 231-BR-HER2 lapatinib-treated lines and 231-BR-HER2 non-treated lines. Nature of the data set: Cell viability. It is filed as cell-based, human. Particulars: 8 or 10 μM lapatinib, 72 hours.
Data set [4] shares this test system. Briefly: Clonogenic assay of ex vivo cultures. The format is cell-based, human. Particulars: 4 μM lapatinib, stained on day 12.
The next data set deals with HER2. Nature of the data set: Western blot of HER2 expression in ex vivo cultures. It is filed as cell-based, human. Particulars: 100 mg/kg p.o. twice daily for 24 days. On the technique in general: Immunoblotting shows a protein as a band on a membrane.
The conditions of data set [5]: female, NuNu, mouse, in vivo.
The conditions of data set [6]: due to active efflux transport at the BBB; cited from earlier work.
The test system of another data set is 231-BR-HER2. Particulars: read-out: IC50 for inhibition of 231-BR-HER2 proliferation in vitro; cited from earlier work.
The subject of data set [7] is brain metastases of HER2+ breast cancer. The following applies: monotherapy; cited from earlier work.
In another data set the test system is HER2+ brain metastases. The following applies: cited from earlier work.
The conditions of data set [8]: mice; cited from earlier work.
For data set [9] the following is noted: cited from earlier work.

pIC50: −log10 of the molar value. “And” between values parts separate entries of the source, which are not always exact repeats. Equal entries are not always repeated. “Also recorded” adds a separate entry of the source. A value given as a limit tells only on which side of the number the result lay.

`CS(=O)(=O)CCNCc1ccc(-c2ccc3ncnc(Nc4ccc(OCc5cccc(F)c5)c(Cl)c4)c3c2)o1` [lapatinib, N-{3-chloro-4-[(3-fluorobenzyl)oxy]phenyl}-6-[5-({[2-(methylsulfonyl)ethyl]amino}methyl)-2-furyl]-4-quinazolinamine]: in [1], the “Average brain metastasis concentration less than in peripheral tissues” value is 1-2 orders of magnitude. Besides, the “Plasma 14C tracer confirmed as intact 14C-lapatinib” value in data set [2] (30 min after 10 mg/kg i.v.) is > 98%. In data set [2] (2 hours after oral administration, 100 mg/kg), the “Tracer intact in plasma and tissues by HPLC” value is > 92%. For the same compound, the “Sensitivity of ex vivo cell lines to lapatinib, viability by MTT” value in [3] is “sensitive to lapatinib inhibition; also recorded: remain sensitive to lapatinib in vitro”. Further, the “Inhibitory effect in clonogenic assays” value in [4] is “comparable between lapatinib- and vehicle-treated cultures”. The “HER2 expression throughout in vivo treatment and ex vivo culture” value in the data set with HER2 was “maintained”. In [5], the “Concentration in some brain metastases as % of that in peripheral lesions” value is on record as ~50% and the “Share of brain metastases with elevated 14C-lapatinib delivery” value was > 85%. In data set [5] (po, 100 mg/kg), the “Calculated % dose to brain” value is 0.0025%. Besides, the “Brain uptake as % of plasma” value in data set [6] is given as < 10%. In addition, in the data set with 231-BR-HER2, the pIC50 was 5.10. In [7], the “Patients achieving an objective response” value is 6% and the “Patients experiencing a >20% reduction in lesion volume” value was 21%. Besides, the “Reduction in formation/number of large brain metastases” value in the data set with HER2+ brain metastases (mice, same dose and tumor model) was ~50% and 50-53%. For the same compound, the Number of micrometastases entry in the data set with HER2+ brain metastases (mice) is on record as “no change”. Moreover, the “Extent of phosphorylated HER2 staining within HER2+ brain metastases” value in the data set on HER2+ brain metastases (treatment initiated early) is “decreased”. In data set [8], the Plasma half-life was 4 to 6 h. The Volume of distribution in data set [9] is reported as 9.5 L/kg.

The record behind these values is paper PMC3489161 (Pharmaceutical research, 2011).
